Experimental data from patent US20130310439A1, “METHOD OF REDUCING PROTEINS MISFOLDING AND/OR AGGREGATION” (Universidade De Lisboa, priority 2010, published 2013).

Test system: Q35 animals (C. elegans model of polyQ aggregation)
Test: polyQ aggregation in Q35 animals treated with cholinergic agonists
Assay type: in vivo
Conditions: one day old (L1s) Q35 animals
Procedure: FIG. 1A: One day old (L1s) Q35 animals were treated with 25 μM levamisole or 1 mM nicotine. The white boxes indicate magnified areas shown below. The photographs are from 4 days old animals.
FIG. 1B are bar graphs showing the number of aggregates in Q35 animals treated with nicotine, levamisole or control animals as a function of age (days).
Additional methods are described in Garcia et al. (2007), Genes and Development 21: 3006-16.

Row | Compound | polyQ aggregation compared to control animals (25 μM levamisole) | polyQ aggregation compared to control animals (1 mM nicotine)
1 | c1ccc([C@H]2CN3CCSC3=N2)cc1 [levamisole] | increased polyQ aggregation | –
2 | CN1CCCC1c1cccnc1 (centres unmarked) [nicotine] | – | increased polyQ aggregation
